Results on 25 compounds are retold here after US10308615B2, “Heterocyclic compounds as inhibitors of Vanin-1 enzyme” (Pfizer Inc., priority 2015, dated 2019).

Broadly, the IC50 is the concentration needed to halve the response being measured. A low value points to higher potency.

Each structure is given as a SMILES string. A value given as a limit tells only on which side of the number the result lay.

The target in test [1] is T1, human vanin-1 (Homo sapiens (Human), UniProt O95497). Put plainly: Human Vanin-1 Enzyme Assay 3. The test is classed as biochemical. The following applies: 2 nM human vanin-1, 10 uM substrate, 15 min. On the procedure:
Human Vanin-1 Enzyme Assay 3.
(§1) The in vitro assay measures enzymatic cleavage of the fluorescently-labeled vanin substrate, pantetheine 7-amino-4-trifluoromethylcoumarin, by human vanin-1.
(§2) The vanin-1 protein was prepared in-house from a construct expressing the extracellular domain of human vanin-1 (GenBank ID NM_004666) preceded N-terminally by the honey bee melittin signal peptide, a GSG linker sequence, a His6X tag and a FLAG tag. The secreted, soluble enzyme was purified from the conditioned medium from a CHO cell line stably expressing the resulting protein. Enzyme purification was performed through sequential Ni NTA and size-exclusion chromatography steps.
On the day of the assay, dose response plates were prepared by diluting the inhibitors in DMSO at compound concentration 100-fold the final in-assay concentration. Concentration series were prepared by serially diluting in DMSO in a two-fold series for a total of 11 data points. Intermediate compound plates containing compound in 10% DMSO were then created by diluting the compounds 10-fold in assay buffer consisting of 50 mM Tris-HCl pH=8.0, 50 mM KCl, 0.005% Brij-35 and 1.5 mM cysteamine. To begin the assay 3 μL were transferred from the intermediate compound plate to the assay plate.
A working solution of human vanin-1 was prepared by diluting the enzyme stock to 2.5 nM in assay buffer. Next, 24 μL of the vanin-1 working solution were transferred to the assay plate. The enzyme reaction was then initiated by the addition of 3 μL of 100 μM pantetheine 7-amino-4-trifluoromethylcoumarin prepared in 5 uM acetic acid. The final concentrations in the assay were 2 nM human vanin-1 and 10 uM substrate. The final concentration of DMSO was 1%. The assay plates were incubated at room temperature for 15 minutes and before they were read on a Tecan Safire using a 405 nm excitation wavelength and a 505 nm emission wavelength for detection.

Test [2] addresses T1, human vanin-1. Put plainly: Human Vanin-1 Enzyme Assay 1. The class given is biochemical. The following applies: 25 pM human vanin-1, 50 uM pantetheine 7-amino-4-trifluoromethylcoumarin, 30 min preincubation, 60 min. How it is done: Human Vanin-1 Enzyme Assay 1.
as §1, §2
The test inhibitors were solubilized in DMSO to a stock concentration of 30 mM. On the day of the assay, dose response plates were prepared by diluting the inhibitors in DMSO at compound concentration 200-fold the final in-assay concentration. Intermediate concentrations were prepared by diluting in DMSO in a four-fold series for a total of 11 data points.
To prepare a working solution of human vanin-1, the enzyme was diluted to 33.3 pM in the assay buffer consisting of 50 mM Tris-HCl pH=8.0, 50 mM KCl, 0.005% Brij-35 and […] cysteamine. To begin the assay 100 nL was transferred from the compound plate to the assay plate. Next, 15 μL of the vanin-1 working solution were transferred to the assay plate. The inhibitor and enzyme were incubated at room temperature for 30 minutes. The enzyme reaction was then initiated by the addition of 5 μL of 200 μM pantetheine 7-amino-4-trifluoromethylcoumarin prepared in assay buffer. The final concentrations in the assay were 25 pM human vanin-1 and 50 uM substrate. The final concentration of DMSO was 0.5%. The assay plates were incubated for 60 minutes and before they were read on a Perkin Elmer EnVision Model 2103 using a 405 nm excitation wavelength and a 510 nm emission wavelength for detection.

T1 sequence (O95497 22-491): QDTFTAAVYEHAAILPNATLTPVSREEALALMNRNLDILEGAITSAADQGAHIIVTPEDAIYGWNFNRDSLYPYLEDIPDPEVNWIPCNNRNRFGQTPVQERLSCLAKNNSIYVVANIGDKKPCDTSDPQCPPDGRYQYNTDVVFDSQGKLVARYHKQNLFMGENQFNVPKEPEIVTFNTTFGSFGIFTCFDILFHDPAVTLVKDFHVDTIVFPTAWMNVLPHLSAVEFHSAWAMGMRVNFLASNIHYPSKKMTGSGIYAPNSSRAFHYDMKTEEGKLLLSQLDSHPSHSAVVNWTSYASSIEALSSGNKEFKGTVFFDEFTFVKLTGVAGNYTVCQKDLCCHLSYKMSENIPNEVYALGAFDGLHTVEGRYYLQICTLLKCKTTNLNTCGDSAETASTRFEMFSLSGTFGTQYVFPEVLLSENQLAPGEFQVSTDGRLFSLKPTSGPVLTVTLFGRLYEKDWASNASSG

On to `NC(=O)c1ccc(CNc2ncc(C(=O)c3ccc(F)c(C(F)(F)F)c3)cn2)cn1` [Example 70, 5-[({5-[4-fluoro-3-(trifluoromethyl)benzoyl]pyrimidin-2-yl}amino)methyl] pyridine-2-carboxamide], for which the IC50 at human vanin-1 [1] amounted to 77.8 nM; against human vanin-1 [2] it was 140 nM.
For `N#Cc1ccc(C(=O)c2cnc(NCc3ccc(F)cc3)nc2)cc1` [Example 78, 4-({2-[(4-fluorobenzyl)amino]pyrimidin-5-yl}carbonyl) benzonitrile] the same measures were 687 nM and more than 20000 nM.
With `COc1ccc(CNc2ncc(C(=O)c3ccc(C#N)cc3)cn2)cc1` [Example 79, 4-({2-[(4-methoxybenzyl)amino]pyrimidin-5-yl}carbonyl) benzonitrile], the IC50 is 348 nM on human vanin-1 [1] and 15100 nM against human vanin-1 [2].
With `O=C(c1cnc(NCc2ccccn2)nc1)c1ccc(F)c(C(F)(F)F)c1` [Example 80, [4-fluoro-3-(trifluoromethyl)phenyl]{2-[(pyridin-2-ylmethyl)amino]pyrimidin-5-yl}methanone], the IC50 was determined as 30.1 nM at human vanin-1 [1] and 384 nM against human vanin-1 [2].
For `O=C(c1cnc(NCc2cccnc2)nc1)c1ccc(F)c(C(F)(F)F)c1` [Example 81, [4-fluoro-3-(trifluoromethyl)phenyl]{2-[(pyridin-3-ylmethyl)amino]pyrimidin-5-yl}methanone] the same measures were more than 16.9 nM and 3.4 nM.
Turning to `O=C(c1cnc(NCc2ccncc2)nc1)c1ccc(F)c(C(F)(F)F)c1` [Example 82, [4-fluoro-3-(trifluoromethyl)phenyl]{2-[(pyridin-4-ylmethyl)amino]pyrimidin-5-yl}methanone], the IC50 stood at 55.5 nM on human vanin-1 [1] and 111 nM on human vanin-1 [2].
Consider `O=C(c1cnc(NCc2ccccc2)nc1)c1ccc(F)c(C(F)(F)F)c1` [Example 83, [2-(benzylamino)pyrimidin-5-yl][4-fluoro-3-(trifluoromethyl)phenyl]methanone], for which the IC50 against human vanin-1 [1] is 84.4 nM; against human vanin-1 [2] it was 1050 nM.
Taken in the same sequence, the figures for `N#Cc1ccc(CNc2ncc(C(=O)c3ccc(F)c(C(F)(F)F)c3)cn2)cc1` [Example 84, 4-[({5-[4-fluoro-3-(trifluoromethyl)benzoyl]pyrimidin-2-yl}amino)methyl] benzonitrile] were 111 nM and 503 nM.
For `O=C(c1cnc(NCc2ccc(F)cc2)nc1)c1ccc(F)c(C(F)(F)F)c1` [Example 85, {2-[(4-fluorobenzyl)amino]pyrimidin-5-yl}[4-fluoro-3-(trifluoromethyl)phenyl]methanone] the same measures were 52.8 nM and 1130 nM.
For `O=C(c1cccc(Cl)c1)c1ccc(NCc2ccccc2)nn1` [Example 86, [6-(benzylamino)pyridazin-3-yl](3-chlorophenyl) methanone] the same measures were 758 nM and 14700 nM.
For `COc1ccc(CNc2ccc(C(=O)c3cccc(C(F)(F)F)c3)nn2)cc1` [Example 88, {6-[(4-methoxybenzyl)amino]pyridazin-3-yl}[3-(trifluoromethyl)phenyl]methanone], the figures for the IC50 at human vanin-1 [1] and against human vanin-1 [2] were 9.3 nM and 18600 nM, respectively.
For `O=C(O)c1ccc(CNc2ncc(C(=O)c3ccc(F)c(C(F)(F)F)c3)cn2)cc1` [Example 89, 4-[({5-[4-fluoro-3-(trifluoromethyl)benzoyl]pyrimidin-2-yl}amino)methyl] benzoic acid] the same measures were 615 nM and 1000 nM.
Taken in the same sequence, the figures for `O=C(c1cccc(C(F)(F)F)c1)c1ccc(NCc2ccccc2)nn1` [Example 90, [6-(benzylamino)pyridazin-3-yl][3-(trifluoromethyl)phenyl]methanone] were 86.4 nM and 7430 nM.
For `O=C(c1cccc(C(F)(F)F)c1)c1ccc(NCc2ccc(F)cc2F)nn1` [Example 92, {6-[(2,4-difluorobenzyl)amino]pyridazin-3-yl}[3-(trifluoromethyl)phenyl]methanone] the same measures were 566 nM and more than 20000 nM.
For the compound `O=C(c1cnc(NCc2ccccc2)nc1)c1cc(F)cc(C(F)(F)F)c1` [Example 93, [2-(benzylamino)pyrimidin-5-yl][3-fluoro-5-(trifluoromethyl)phenyl]methanone], the IC50 against human vanin-1 [1] was 154 nM; at human vanin-1 [2], 2150 nM.
As to `N#Cc1ccc(CNc2ncc(C(=O)c3cc(F)cc(C(F)(F)F)c3)cn2)cc1` [Example 94, 4-[({5-[3-fluoro-5-(trifluoromethyl)benzoyl]pyrimidin-2-yl}amino)methyl] benzonitrile], the IC50 came to 987 nM on human vanin-1 [1] and 2200 nM against human vanin-1 [2].
For `CS(=O)(=O)c1cccc(C(=O)c2cnc(NCc3ccc(F)cc3)nc2)c1` [Example 96, {2-[(4-fluorobenzyl)amino]pyrimidin-5-yl}[3-(methylsulfonyl)phenyl]methanone] the same measures were 415 nM and 14.2 nM.
For `O=C(c1cnc(NCc2ccccc2)nc1)c1ccc2c(c1)OCCO2` [Example 97, [2-(benzylamino)pyrimidin-5-yl](2,3-dihydro-1,4-benzodioxin-6-yl)methanone] the same measures were 873 nM and 4850 nM.
For `O=C(c1ccccc1)c1cnc(NCc2ccccc2)nc1` [Example 99, [2-(benzylamino)pyrimidin-5-yl](phenyl) methanone] the same measures were 537 nM and 1680 nM.
For `O=C(c1ccccc1)c1cnc(NCc2ccccc2F)nc1` [Example 101, {2-[(2-fluorobenzyl)amino]pyrimidin-5-yl}(phenyl) methanone], the IC50 turned out to be 150 nM at human vanin-1 [1] and 804 nM against human vanin-1 [2].
Taken in the same sequence, the figures for `NC(=O)c1ccc(CNc2ncc(C(=O)c3ccccc3)cn2)cn1` [Example 107, 5-{[(5-benzoylpyrimidin-2-yl)amino]methyl} pyridine-2-carboxamide] were 751 nM and 906 nM.
For `O=C(c1cnc(NCc2ccc(F)cc2)nc1)c1cc(F)cc(C(F)(F)F)c1` [Example 127, {2-[(4-fluorobenzyl)amino]pyrimidin-5-yl}[3-fluoro-5-(trifluoromethyl)phenyl]methanone] the same measures were 36.2 nM and 3950 nM.
For `O=C(c1cnc(OCc2ccccc2)nc1)c1cccc(C(F)(F)F)c1` [Example 155, [2-(benzyloxy)pyrimidin-5-yl][3-(trifluoromethyl)phenyl]methanone] the same measures were more than 1110 nM and more than 20000 nM.
On to `O=C(c1cnc(OCc2ccc(F)cc2F)nc1)c1cccc(C(F)(F)F)c1` [Example 156, {2-[(2,4-difluorobenzyl)oxy]pyrimidin-5-yl}[3-(trifluoromethyl)phenyl]methanone], for which the IC50 on human vanin-1 [1] is more than 1130 nM; at human vanin-1 [2], more than 20000 nM.
Taken in the same sequence, the figures for `CCN1CCCC1CNc1ncc(C(=O)c2cccc(C(F)(F)F)c2)cn1` (centres unmarked) [Example 165, (2-{[(1-ethylpyrrolidin-2-yl)methyl]amino}pyrimidin-5-yl)[3-(trifluoromethyl)phenyl]methanone] were 6900 nM and 11900 nM.
